Measured values from ChEMBL document CHEMBL1201862, “PubChem BioAssay data set” (2004).
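Grown in 96-well plates, cells were treated for 48 hours with each compound at five concentrations. Insufficient inhibition: endpoint recorded as highest concentration tested. At the GI50, growth is halved.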 Activity calls are given as the source filed them. No stated cut-off is given here; in the data, active = GI50 up to about 1.1 µM and inactive = higher.

Legend:
Assay in all cases: NCI anticancer screen, dose series, 48 h
A498 = test system: A498
A549 = test system: A549
COLO 205 = test system: COLO 205
EKVX = test system: EKVX
HCC 2998 = test system: HCC 2998
HCT-116 = test system: HCT-116
Hs-578T = test system: Hs-578T
MCF7 = test system: MCF7
MDA-MB-231 = test system: MDA-MB-231
NCI-H23 = test system: NCI-H23
OVCAR-3 = test system: OVCAR-3
OVCAR-5 = test system: OVCAR-5
RXF 393 = test system: RXF 393
SF-268 = test system: SF-268
SF-539 = test system: SF-539
SK-MEL-28 = test system: SK-MEL-28
SK-MEL-2 = test system: SK-MEL-2
SN12C = test system: SN12C
HOP-92 = test system: HOP-92
SR = test system: SR

Row | Compound | GI50 (A498) | GI50 (A549) | GI50 (COLO 205) | GI50 (EKVX) | GI50 (HCC 2998) | GI50 (HCT-116) | GI50 (Hs-578T) | GI50 (MCF7) | GI50 (MDA-MB-231) | GI50 (NCI-H23) | GI50 (OVCAR-3) | GI50 (OVCAR-5) | GI50 (RXF 393) | GI50 (SF-268) | GI50 (SF-539) | GI50 (SK-MEL-28) | GI50 (SK-MEL-2) | GI50 (SN12C) | GI50 (HOP-92) | GI50 (SR)
1 | FC(F)(F)c1nc2cc(SSc3cc4nc(C(F)(F)F)[nH]c4cc3Cl)c(Cl)cc2[nH]1 | > 100 µM (inactive) | > 100 µM (inactive) | 53.7 µM (inactive) | > 100 µM (inactive) | > 100 µM (inactive) | > 100 µM (inactive) | > 100 µM (inactive) | 65.5 µM (inactive) | > 100 µM (inactive) | > 100 µM (inactive) | 45.2 µM (inactive) | > 100 µM (inactive) | > 100 µM (inactive) | > 100 µM (inactive) | > 100 µM (inactive) | > 100 µM (inactive) | > 100 µM (inactive) | > 100 µM (inactive) |  | 
2 | Oc1cc(-c2ccc(Cl)cc2)cn2c1nc1ccccc12 | > 100 µM (inactive) |  | > 100 µM (inactive) | > 100 µM (inactive) |  | > 100 µM (inactive) | 36.6 µM (inactive) | > 100 µM (inactive) | > 100 µM (inactive) | > 100 µM (inactive) | > 100 µM (inactive) |  | > 100 µM (inactive) | > 100 µM (inactive) | > 100 µM (inactive) | > 100 µM (inactive) |  | > 100 µM (inactive) | > 100 µM (inactive) | 
3 | CC1(C)OP(=O)(O)C=C1Sc1ccc([N+](=O)[O-])cc1[N+](=O)[O-] | > 100 µM (inactive) | > 100 µM (inactive) | > 100 µM (inactive) | > 100 µM (inactive) | > 100 µM (inactive) | > 100 µM (inactive) | > 100 µM (inactive) | > 100 µM (inactive) |  | > 100 µM (inactive) | > 100 µM (inactive) | > 100 µM (inactive) |  | > 100 µM (inactive) | > 100 µM (inactive) | > 100 µM (inactive) | > 100 µM (inactive) | > 100 µM (inactive) | > 100 µM (inactive) | > 100 µM (inactive)
4 | COc1ccc(-c2nc(SCC(=O)N/N=C/c3ccc([N+](=O)[O-])cc3)[nH]c2-c2ccc(OC)cc2)cc1 | 14.3 µM (inactive) | 6.95 µM (inactive) | 2.23 µM (inactive) | 16.4 µM (inactive) | 12.1 µM (inactive) | 8.49 µM (inactive) | 14.4 µM (inactive) | 4.44 µM (inactive) | 21.2 µM (inactive) | 21.9 µM (inactive) | 10.4 µM (inactive) | 16.2 µM (inactive) | 11.4 µM (inactive) | 25.7 µM (inactive) | 11.9 µM (inactive) | 21.7 µM (inactive) | 6.47 µM (inactive) | 16.6 µM (inactive) | 12.6 µM (inactive) | 
5 | COc1ccc(/C=C2\NC(=S)N(CN3CCCCC3)C2=O)cc1 | 51.9 µM (inactive) | 72.1 µM (inactive) | 35.2 µM (inactive) | 34.4 µM (inactive) |  | 34.6 µM (inactive) | 17.8 µM (inactive) | 21.8 µM (inactive) | > 100 µM (inactive) | 77.1 µM (inactive) | 71.6 µM (inactive) | > 100 µM (inactive) |  | 18.2 µM (inactive) |  | > 100 µM (inactive) | > 100 µM (inactive) | > 100 µM (inactive) | 76 µM (inactive) | 38.1 µM (inactive)
6 | CC(=O)Nc1ccc2cc(C)c(O)nc2n1 | > 100 µM (inactive) | > 100 µM (inactive) | > 100 µM (inactive) | > 100 µM (inactive) |  | > 100 µM (inactive) | 85.7 µM (inactive) |  | 75.7 µM (inactive) | > 100 µM (inactive) |  | > 100 µM (inactive) | 25.9 µM (inactive) | > 100 µM (inactive) | > 100 µM (inactive) | > 100 µM (inactive) | > 100 µM (inactive) | > 100 µM (inactive) | 54.2 µM (inactive) | > 100 µM (inactive)
7 | CN(C)C(=S)C(Cl)(c1ccccc1)c1ccccc1 | > 100 µM (inactive) | 59.8 µM (inactive) | 85.7 µM (inactive) | 27.8 µM (inactive) | > 100 µM (inactive) | 38.4 µM (inactive) | > 100 µM (inactive) | 28.6 µM (inactive) | 59.7 µM (inactive) | 53.3 µM (inactive) | 82 µM (inactive) | > 100 µM (inactive) |  | > 100 µM (inactive) | 36.6 µM (inactive) | > 100 µM (inactive) | 27.4 µM (inactive) | 43.7 µM (inactive) | > 100 µM (inactive) | 
8 | C=C1CC2(CCCC3(CC(=C)C(=O)O3)C2(C)C)OC1=O (stereo not drawn) | 21.4 µM (inactive) | 13.8 µM (inactive) | 2.21 µM (inactive) | 4.02 µM (inactive) |  | 1.44 µM (inactive) | 20.8 µM (inactive) | 3.4 µM (inactive) | 4.95 µM (inactive) | 2.89 µM (inactive) | 1.96 µM (inactive) | 1.58 µM (inactive) | 3.86 µM (inactive) | 19.2 µM (inactive) | 3.26 µM (inactive) | 2.05 µM (inactive) | 7.24 µM (inactive) | 3.03 µM (inactive) | 5.85 µM (inactive) | 
9 | CCCC/C=C1\CCC(CN2CCCCC2)C1=O (stereo not drawn) | 25.7 µM (inactive) | 33.3 µM (inactive) | 12 µM (inactive) | 26.1 µM (inactive) | 8.67 µM (inactive) | 17.8 µM (inactive) | > 100 µM (inactive) | > 100 µM (inactive) | > 100 µM (inactive) | 28.1 µM (inactive) | 29.8 µM (inactive) | 34.7 µM (inactive) | 10.9 µM (inactive) | 32.1 µM (inactive) | 19 µM (inactive) | 21.3 µM (inactive) | > 39 µM (inactive) | 11.5 µM (inactive) | 10.9 µM (inactive) | 
10 | CCC1CCN=C(Cn2cc(C)c(=O)[nH]c2=O)N1 (stereo not drawn) | > 100 µM (inactive) | > 100 µM (inactive) | > 100 µM (inactive) | > 100 µM (inactive) | > 100 µM (inactive) | > 100 µM (inactive) | > 100 µM (inactive) | > 100 µM (inactive) | > 100 µM (inactive) | > 100 µM (inactive) |  | > 100 µM (inactive) | > 100 µM (inactive) | > 100 µM (inactive) |  | > 100 µM (inactive) | > 100 µM (inactive) | > 100 µM (inactive) | > 100 µM (inactive) | 
11 | Nc1nc(Br)nc2ncn(C3CC(O)C(CO)O3)c12 (stereo not drawn) | > 100 µM (inactive) | 18 µM (inactive) | 67.3 µM (inactive) | > 100 µM (inactive) | > 60.8 µM (inactive) | 26.4 µM (inactive) | > 100 µM (inactive) | > 21.3 µM (inactive) | > 100 µM (inactive) | 3.76 µM (inactive) | > 100 µM (inactive) | > 100 µM (inactive) | > 100 µM (inactive) | > 100 µM (inactive) | 58.7 µM (inactive) | > 100 µM (inactive) | > 100 µM (inactive) | 10 µM (inactive) | 2.42 µM (inactive) | 
12 | COc1ccc(-n2c(N)c(C#N)[nH]c2=O)cc1 | > 10 µM (inactive) | > 10 µM (inactive) | > 10 µM (inactive) | > 10 µM (inactive) | > 10 µM (inactive) | > 10 µM (inactive) | > 10 µM (inactive) |  | > 10 µM (inactive) | > 10 µM (inactive) | > 10 µM (inactive) | 3.5 µM (inactive) | > 10 µM (inactive) | > 10 µM (inactive) | > 10 µM (inactive) | > 10 µM (inactive) | > 10 µM (inactive) | > 10 µM (inactive) | > 10 µM (inactive) | > 10 µM (inactive)
13 | C[C@@]1(CO)[C@H](O)CC[C@@]2(C)[C@H]1CC[C@H]1C[C@@H]3C[C@@]12CC[C@@]3(O)COC(=O)CN |  |  | 19.1 µM (inactive) | 16.4 µM (inactive) | 4.23 µM (inactive) |  | 53.1 µM (inactive) |  | 34.8 µM (inactive) | 2.08 µM (inactive) | 58.3 µM (inactive) |  |  | 9.29 µM (inactive) |  | 100 µM (inactive) | 64.9 µM (inactive) |  | 20.4 µM (inactive) | 0.811 µM (active)
14 | N#C/N=C1/c2ccccc2/C(=N/C#N)c2cc(CO)ccc21 | 23.5 µM (inactive) | 20.9 µM (inactive) |  | 27.7 µM (inactive) |  | 29.2 µM (inactive) | 69.2 µM (inactive) | 30.6 µM (inactive) | 71.4 µM (inactive) | 27.1 µM (inactive) | 26.9 µM (inactive) | 50.9 µM (inactive) | 27.6 µM (inactive) | 39.2 µM (inactive) | 51.2 µM (inactive) | 43 µM (inactive) | 61.2 µM (inactive) | 24.8 µM (inactive) | 24.8 µM (inactive) | 17 µM (inactive)
15 | CCCCCCCC(=O)NS(=O)(=O)c1ccccc1 | > 100 µM (inactive) | > 100 µM (inactive) | > 100 µM (inactive) | > 100 µM (inactive) | > 100 µM (inactive) | > 100 µM (inactive) | > 100 µM (inactive) |  | > 100 µM (inactive) | > 100 µM (inactive) | > 100 µM (inactive) |  |  | > 100 µM (inactive) | > 100 µM (inactive) | > 100 µM (inactive) | > 100 µM (inactive) |  |  | > 100 µM (inactive)
16 | CCN(CC)C(=S)SC [METHYLDIETHYL CARBAMODITHIOATE] | > 100 µM (inactive) | > 100 µM (inactive) | > 100 µM (inactive) | > 100 µM (inactive) | > 100 µM (inactive) | > 100 µM (inactive) | > 100 µM (inactive) | > 100 µM (inactive) | > 100 µM (inactive) | > 100 µM (inactive) | > 100 µM (inactive) | > 100 µM (inactive) | > 100 µM (inactive) | > 100 µM (inactive) | > 100 µM (inactive) | > 100 µM (inactive) | > 100 µM (inactive) | > 100 µM (inactive) | > 100 µM (inactive) | 
